From patent publication US20230146233A1, “A CLASS OF POLYCYCLIC COMPOUNDS INHIBITING RNA HELICASE DHX33 AND THE APPLICATION THEREOF” (Shenzhen KeYe Life Technologies, Co., Ltd, priority 2020, published 2023)
pIC50: −log10 of the molar value.

System: U251-MG cells
Assay: Half-maximal cell-inhibitory concentration on U251-MG cells (CCK-8)
Format: cell-based
Conditions: Homo sapiens, U-251, U251-MG cells (DHX33-overexpressing cancer cell strain), 48 hours, read-out: IC50 (half-maximal inhibitory concentrations of compounds on U251-MG cells)
Procedure: U251-MG cells were purchased from the cell bank of the Chinese Academy of Sciences. Cells were cultured in MEM medium containing 10% fetal bovine serum (FBS), 2 mM L-glutammie, streptomycmn and penicillin. The growth conditions were set as follows: a humidified cell incubator (37° C., 5% CO2). Cells were passaged every 3 days and were discarded after 10 passages.
U251-MG cells (a […]-overexpressing cancer cell strain) were seeded on a 96-well plate at 1×10^4 cells/100 μl/well. After the cells were completely attached, the compounds were added to the cell culture medium at a concentration of 5 nM, 10 nM, 25 nM, 50 nM, 100 nM, […], 500 nM, 1000 nM, 2000 nM, […] or 20 μM, and the resulting mixture was uniformly mixed with a multichannel pipette. After the cells were incubated with the compound for 48 hours, CCK-8 reagent (Yeasen Biotechnology (Shanghai) Co., Ltd.) was added to the medium in the 96-well plate in accordance with the standard procedure. After being incubated for 2 hours, the plate was read with a microplate reader (OD=450 nm). The experiment was repeated three times, the inhibition curve of the compound at different concentrations was plotted, and the half-maximal inhibitory concentration (IC50) of the compound was calculated.

| SMILES | pIC50 |
| --- | --- |
| COc1ccnc2nc(/C(C#N)=C/c3cc(C)n(-c4sc(C)c(C)c4C#N)c3C)[nH]c12 [AB24310, (E)-2-(3-(2-cyano-2-(7-methoxy-1H-imidazo[4,5-b]pyridin-2-yl)vinyl)-2,5-dimethyl-1H-pyrrol-1-yl)-4,5-dimethylthiophene-3-carbonitrile] | 4.70 to 5.30 |
| COC(=O)c1cc(C)sc1-n1c(C)cc(/C=C(\C#N)c2nc3cc(OC)ncc3[nH]2)c1C [AB24311, methyl (E)-2-(3-(2-cyano-2-(6-methoxy-3H-imidazo[4,5-c]pyridin-2-yl)vinyl)-2,5-dimethyl-1H-pyrrol-1-yl)-5-methylthiophene-3-carboxylate] | > 7.00 |
| COc1cc2nc(/C(C#N)=C/c3cc(C)n(-c4sc(C)cc4C(N)=O)c3C)[nH]c2cn1 [AB24313, (E)-2-(3-(2-cyano-2-(6-methoxy-3H-imidazo[4,5-c]pyridin-2-yl)vinyl)-2,5-dimethyl-1H-pyrrol-1-yl)-5-methylthiophene-3-carboxamide] | 6.00 to 7.00 |
| COC(=O)c1c(-n2c(C)cc(/C=C(\C#N)c3nc4cc(OC)ncc4[nH]3)c2C)sc(C)c1C [AB24316] | 6.00 to 7.00 |
| CCc1cc(C#N)c(-n2c(C)cc(/C=C(\C#N)c3nc4cc(OC)ncc4[nH]3)c2C)s1 [AB24317, (E)-2-(3-(2-cyano-2-(6-methoxy-3H-imidazo[4,5-c]pyridin-2-yl)vinyl)-2,5-dimethyl-1H-pyrrol-1-yl)-5-ethylthiophene-3-carbonitrile] | > 7.00 |
| COc1cc2nc(/C(C#N)=C/c3cc(C)n(-c4sc(C)nc4C)c3C)[nH]c2cn1 [AB24319] | 6.00 to 7.00 |
| CCOC(=O)c1cc(C#N)c(-n2c(C)cc(/C=C(\C#N)c3nc4cc(OC)ncc4[nH]3)c2C)s1 [AB24320] | 5.30 to 6.00 |
| COc1cc2nc(/C(C#N)=C/c3cc(C)n(-c4sc(Br)cc4C#N)c3C)[nH]c2cn1 [AB24323, (E)-5-bromo-2-(3-(2-cyano-2-(6-methoxy-3H-imidazo[4,5-c]pyridin-2-yl)vinyl)-2,5-dimethyl-1H-pyrrol-1-yl)thiophene-3-carbonitrile] | > 7.00 |
| COc1cc2nc(/C(C#N)=C/c3cc(C)n(-c4sc(C5CC5)cc4C#N)c3C)[nH]c2cn1 [AB24324, (E)-2-(3-(2-cyano-2-(6-methoxy-3H-imidazo[4,5-c]pyridin-2-yl)vinyl)-2,5-dimethyl-1H-pyrrol-1-yl)-5-cyclopropylthiophene-3-carbonitrile] | > 7.00 |
| COc1cc2nc(/C(C#N)=C/c3cc(C)n(-c4sc(C(C)C)cc4C#N)c3C)[nH]c2cn1 [AB24325, (E)-2-(3-(2-cyano-2-(6-methoxy-3H-imidazo[4,5-c]pyridin-2-yl)vinyl)-2,5-dimethyl-1H-pyrrol-1-yl)-5-isopropylthiophene-3-carbonitrile] | 6.00 to 7.00 |
| COc1cc2nc(/C(C#N)=C/c3cc(C)n(-c4sc(C(C)(C)C)cc4C#N)c3C)[nH]c2cn1 [AB24326] | 6.00 to 7.00 |
| COc1cc2nc(/C(C#N)=C/c3cc(C)n(-c4sc(Cc5ccccc5)cc4C#N)c3C)[nH]c2cn1 [AB24328, (E)-5-benzyl-2-(3-(2-cyano-2-(6-methoxy-3H-imidazo[4,5-c]pyridin-2-yl)vinyl)-2,5-dimethyl-1H-pyrrol-1-yl)thiophene-3-carbonitrile] | 6.00 to 7.00 |
| COc1cnc2[nH]c(/C(C#N)=C/c3cc(C)n(-c4sc(C)cc4C#N)c3C)nc2c1 [AB24333, (E)-2-(3-(2-cyano-2-(6-methoxy-3H-imidazo[4,5-b]pyridin-2-yl)vinyl)-2,5-dimethyl-1H-pyrrol-1-yl)-5-methylthiophene-3-carbonitrile] | > 7.00 |
| COc1cc2nc(/C(C#N)=C/c3cnn(-c4sc(C)cc4C#N)c3C)[nH]c2cn1 [AB24334, (E)-2-(4-(2-cyano-2-(6-methoxy-3H-imidazo[4,5-c]pyridin-2-yl)vinyl)-5-methyl-1H-pyrazol-1-yl)-5-methylthiophene-3-carbonitrile] | 6.00 to 7.00 |
| COc1cc2nc(/C(C#N)=C/c3cc(C)n(-c4sc(-c5cccnc5)cc4C#N)c3C)[nH]c2cn1 [AB24337] | 5.30 to 6.00 |
| COc1cc2nc(/C(C#N)=C/c3cc(C)n(-c4sc(-c5ccncc5)cc4C#N)c3C)[nH]c2cn1 [AB24338] | 5.30 to 6.00 |
| Cc1cc(C#N)c(-n2c(C)cc(/C=C(\C#N)c3nc4cc(Cl)ncc4[nH]3)c2C)s1 [AB24341, (E)-2-(3-(2-(6-chloro-3H-imidazo[4,5-c]pyridin-2-yl)-2-cyanovinyl)-2,5-dimethyl-1H-pyrrol-1-yl)-5-methylthiophene-3-carbonitrile] | > 7.00 |

| SMILES | pIC50 |
| --- | --- |
| COc1cc2cc(/C(C#N)=C/c3cc(C)n(-c4sc(C)cc4C#N)c3C)[nH]c2cn1 [AB24342, (Z)-2-(3-(2-cyano-2-(5-methoxy-1H-pyrrolo[2,3-c]pyridin-2-yl)vinyl)-2,5-dimethyl-1H-pyrrol-1-yl)-5-methylthiophene-3-carbonitrile] | 6.00 to 7.00 |
| COC(=O)c1nc(C)sc1-n1c(C)cc(/C=C(\C#N)c2nc3cc(OC)ncc3[nH]2)c1C [AB24345] | 6.00 to 7.00 |
| COc1cc2nc(/C(C#N)=C(\C)c3cc(C)n(-c4sc(C)cc4C#N)c3C)[nH]c2cn1 [AB24347, (E)-2-(3-(1-cyano-1-(6-methoxy-3H-imidazo[4,5-c]pyridin-2-yl)prop-1-en-2-yl)-2,5-dimethyl-1H-pyrrol-1-yl)-5-methylthiophene-3-carbonitrile] | 6.00 to 7.00 |
| COc1cc2nc(/C(C#N)=C/c3cc(C)n(-c4sc(C)nc4C#N)c3C)[nH]c2cn1 [AB24348, (E)-5-(3-(2-cyano-2-(6-methoxy-3H-imidazo[4,5-c]pyridin-2-yl)vinyl)-2,5-dimethyl-1H-pyrrol-1-yl)-2-methylthiazole-4-carbonitrile] | > 7.00 |
| COc1cc2nc(/C(C#N)=C/c3cc(C)n(-c4sc(Cl)cc4C#N)c3C)[nH]c2cn1 [AB24349] | > 7.00 |
| COc1cc2nc(/C(C#N)=C/c3cc(C)n(-c4sc(C)cc4C#N)c3C)n(C)c2cn1 [AB24352, (E)-2-(3-(2-cyano-2-(6-methoxy-3-methyl-3H-imidazo[4,5-c]pyridin-2-yl)vinyl)-2,5-dimethyl-1H-pyrrol-1-yl)-5-methylthiophene-3-carbonitrile] | 6.00 to 7.00 |
| Cc1cc(C#N)c(-n2c(C)cc(/C=C(\C#N)c3nc4cc(N(C)C)ncc4[nH]3)c2C)s1 [AB24355, (E)-2-(3-(2-cyano-2-(6-(dimethylamino)-3H-imidazo[4,5-c]pyridin-2-yl)vinyl)-2,5-dimethyl-1H-pyrrol-1-yl)-5-methylthiophene-3-carbonitrile] | > 7.00 |
| COc1ccc2c(c1)[nH]c1cc(-c3cc(C)n(-c4sc(C)cc4C#N)c3C)c(C)cc12 [AB24374, 2-(3-(7-methoxy-3-methyl-9H-carbazol-2-yl)-2,5-dimethyl-1H-pyrrol-1-yl)-5-methylthiophene-3-carbonitrile] | 4.70 to 5.30 |
| COc1ccc2[nH]c3cc(-c4cc(C)n(-c5sc(C)cc5C#N)c4C)ccc3c2c1 [AB24375, 2-(3-(6-methoxy-9H-carbazol-2-yl)-2,5-dimethyl-1H-pyrrol-1-yl)-5-methylthiophene-3-carbonitrile] | 4.70 to 5.30 |
| COc1ccc2nc3cc(-c4cc(C)n(-c5sc(C)cc5C#N)c4C)ccc3n2c1 [AB24385, 2-(3-(2-methoxybenzo[4,5]imidazo[1,2-a]pyridin-7-yl)-2,5-dimethyl-1H-pyrrol-1-yl)-5-methylthiophene-3-carbonitrile] | 5.30 to 6.00 |
| COc1cc2nc(/C(C#N)=C/c3cc(C)n(Cc4ccco4)c3C)[nH]c2cn1 [AB24397, (E)-3-(1-(furan-2-ylmethyl)-2,5-dimethyl-1H-pyrrol-3-yl)-2-(6-methoxy-3H-imidazo[4,5-c]pyridin-2-yl)acrylonitrile] | > 7.00 |
| COc1cc2nc(/C(C#N)=C/c3cc(C)n(Cc4ccccc4)c3C)[nH]c2cn1 [AB24398, (E)-3-(1-benzyl-2,5-dimethyl-1H-pyrrol-3-yl)-2-(6-methoxy-3H-imidazo[4,5-c]pyridin-2-yl)acrylonitrile] | > 7.00 |
| COc1cc2nc(NC(=O)c3cc(C)n(-c4sc(C)nc4C#N)c3C)[nH]c2cn1 [AB29502, 1-(4-cyano-2-methylthiazol-5-yl)-N-(6-methoxy-3H-imidazo[4,5-c]pyridin-2-yl)-2,5-dimethyl-1H-pyrrole-3-carboxamide] | 6.00 to 7.00 |
| COc1ccc2nc(NC(=O)c3cc(C)n(-c4sc(C)nc4C)c3C)[nH]c2c1 [AB29505, 1-(2,4-dimethylthiazol-5-yl)-N-(6-methoxy-1H-benzo[d]imidazol-2-yl)-2,5-dimethyl-1H-pyrrole-3-carboxamide] | 6.00 to 7.00 |
| COc1cc2nc(/C(C#N)=C/c3cc(C)n(Cc4ccccn4)c3C)[nH]c2cn1 [AB29507, (E)-3-(2,5-dimethyl-1-(pyridin-2-ylmethyl)-1H-pyrrol-3-yl)-2-(6-methoxy-3H-imidazo[4,5-c]pyridin-2-yl)acrylonitrile] | > 7.00 |
| COc1cc2nc(/C(C#N)=C/c3cc(C)n(Cc4cnccn4)c3C)[nH]c2cn1 [AB29508, (E)-3-(2,5-dimethyl-1-(pyrazin-2-ylmethyl)-1H-pyrrol-3-yl)-2-(6-methoxy-3H-imidazo[4,5-c]pyridin-2-yl)acrylonitrile] | > 7.00 |
| COc1ccc2nc(NC(=O)c3cc(C)n(-c4sc(C)nc4C#N)c3C)[nH]c2c1 [AB29509, 1-(4-cyano-2-methylthiazol-5-yl)-N-(6-methoxy-1H-benzo[d]imidazol-2-yl)-2,5-dimethyl-1H-pyrrole-3-carboxamide] | 6.00 to 7.00 |
